Experimental findings from patent publication EP4703358A1, “BENZO SIX-MEMBERED HETEROCYCLIC GSPT1 PROTEIN DEGRADATION AGENT AND USE THEREOF” (China Pharmaceutical University, priority 2023, dated 2024) are described below.

The target of one assay is T1, GSPT1 protein (Homo sapiens, UniProt P15170+Q96SW2).
T1 construct: host or cells: KG-1 cells
The assay can be described thus: Degradation of GSPT1 in KG-1 cells (Western blot). Format: cell-based. More on the design: percent GSPT1 degradation: dose or concentration left out as unconfirmed. How it is done:
KG-1 cells (ATCC) were grown in an IMDM culture medium (containing 20% FBS). After centrifugation and counting, the cell concentration was adjusted. The cells were plated onto 6-well plates at 10^6 cells/well, with 1350 µL per well. 150 µL of DMSO and the test compounds of the present disclosure (compound concentration: 200 nM) were added. The plates were incubated in an incubator at 37 °C with 5% CO2 for 4 hours. The cells were centrifuged, and the culture medium was discarded. PBS was added to wash the cells and then discarded. Whole cell lysates were prepared using a protease inhibitor cocktail (100×, Fude Biological), a protein phosphatase inhibitor cocktail (100×, Fude Biological), SuperNuclease (Beyotime), and a high-intensity RIPA lysis buffer (Thermo Fisher) and placed on ice for 30 minutes. After centrifugation, the cell debris precipitates were discarded, and the whole cell lysate supernatants were collected and transferred to new centrifuge tubes. After a BCA protein assay, samples were prepared using a 5× loading buffer (Thermo Fisher). The samples were subjected to protein electrophoresis separation in a 4-20% precast gel (SDS-PAGE gel), transferred to a PVDF membrane, then blocked with 5% NFDM/TBST at room temperature for 1 hour, incubated overnight with primary antibodies at 4 °C, and incubated with a secondary antibody at room temperature for 2 hours the next day. Signals were detected using a MINICHEMITM imaging system.
Primary antibodies: • Anti-GSPT1: Abcam ab234433 • Anti-beta actin: Fude Biological FD0060
Secondary antibody: Anti-rabbit peroxidase-linked secondary antibody: Fude Biological FDG007
The degradation effects of the compounds on GSPT1 protein are shown in Table 1, where A represents a GSPT1 protein degradation percentage of no less than 80%, B represents a degradation percentage of less than 80% but no less than 50%, C represents a degradation percentage of less than 50% but no less than 25%, and D represents a degradation percentage of less than 25%. Table 1. The degradation of GSPT1 protein by compounds
A general note: Immunoblotting shows a protein as a band on a membrane.

Another assay concerns KG-1 cells. The assay is described as follows: Antiproliferative activity against KG-1 cells (CCK8). Format: cell-based. The following applies: 72 hours. As for the experimental part: KG-1 cells in the logarithmic growth phase were diluted in a culture medium (RPMI + 10% FBS) and plated onto 96-well plates at 5000 cells/well, and the plates were incubated in an incubator at 37 °C with 5% CO2 for 24 hours. 10 mM stock solutions of the test compounds of the present disclosure in DMSO were prepared and diluted with the culture medium to set 9 concentration gradients. Three replicate wells were set for each concentration. After compound addition, the plates were incubated in an incubator at 37 °C with 5% CO2 for 72 hours. The cell proliferation was assessed using the CCK8 method. The cell growth inhibition IC50 values of the compounds were determined using an enzyme labeling method. The IC50 values were calculated using GraphPad Prism 7 software.
The antiproliferative activity of the compounds against KG-1 cells is shown in Table 2, where A represents IC50 < 1 nM, B represents 1 ≤ IC50 < 10 nM, C represents 10 nM ≤ IC50 < 100 nM, D represents 100 nM ≤ IC50 < 1000 nM, and E represents IC50 ≥ 1000 nM. Table 2. The antiproliferative activity of compounds against KG-1 cells

The mark [1] stands for this setting: KG-1 cells, compound concentration 200 nM, 4 hours.

For orientation: IC50 means the concentration at which inhibition is half-maximal.

T1 sequence (P15170 whole entry): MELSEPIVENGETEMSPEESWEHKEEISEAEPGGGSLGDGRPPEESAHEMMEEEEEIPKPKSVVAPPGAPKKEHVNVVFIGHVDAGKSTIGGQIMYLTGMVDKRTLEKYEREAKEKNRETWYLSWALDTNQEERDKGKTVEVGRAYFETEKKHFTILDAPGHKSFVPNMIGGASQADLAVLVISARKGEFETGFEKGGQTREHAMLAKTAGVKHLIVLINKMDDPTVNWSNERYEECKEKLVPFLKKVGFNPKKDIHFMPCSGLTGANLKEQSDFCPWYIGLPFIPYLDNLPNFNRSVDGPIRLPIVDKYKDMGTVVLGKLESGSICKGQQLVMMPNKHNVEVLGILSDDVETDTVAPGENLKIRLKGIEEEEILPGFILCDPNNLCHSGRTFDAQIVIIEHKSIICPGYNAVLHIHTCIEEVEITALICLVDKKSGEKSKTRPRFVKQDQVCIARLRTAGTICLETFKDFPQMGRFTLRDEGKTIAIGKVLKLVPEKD
T1 sequence (Q96SW2 whole entry): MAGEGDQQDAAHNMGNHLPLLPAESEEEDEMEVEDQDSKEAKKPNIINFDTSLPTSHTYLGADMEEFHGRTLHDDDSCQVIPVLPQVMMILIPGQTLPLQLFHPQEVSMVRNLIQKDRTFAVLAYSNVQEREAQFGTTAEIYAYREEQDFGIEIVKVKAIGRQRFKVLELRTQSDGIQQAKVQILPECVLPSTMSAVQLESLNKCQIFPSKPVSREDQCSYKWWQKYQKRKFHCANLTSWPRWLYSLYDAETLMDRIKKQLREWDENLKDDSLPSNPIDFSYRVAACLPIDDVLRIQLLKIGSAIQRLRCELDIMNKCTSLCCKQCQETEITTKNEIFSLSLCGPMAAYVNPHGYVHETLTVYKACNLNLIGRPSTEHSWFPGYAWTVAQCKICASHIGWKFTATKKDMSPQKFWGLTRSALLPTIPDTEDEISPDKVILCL
T1 sequence (Q16531 whole entry partner): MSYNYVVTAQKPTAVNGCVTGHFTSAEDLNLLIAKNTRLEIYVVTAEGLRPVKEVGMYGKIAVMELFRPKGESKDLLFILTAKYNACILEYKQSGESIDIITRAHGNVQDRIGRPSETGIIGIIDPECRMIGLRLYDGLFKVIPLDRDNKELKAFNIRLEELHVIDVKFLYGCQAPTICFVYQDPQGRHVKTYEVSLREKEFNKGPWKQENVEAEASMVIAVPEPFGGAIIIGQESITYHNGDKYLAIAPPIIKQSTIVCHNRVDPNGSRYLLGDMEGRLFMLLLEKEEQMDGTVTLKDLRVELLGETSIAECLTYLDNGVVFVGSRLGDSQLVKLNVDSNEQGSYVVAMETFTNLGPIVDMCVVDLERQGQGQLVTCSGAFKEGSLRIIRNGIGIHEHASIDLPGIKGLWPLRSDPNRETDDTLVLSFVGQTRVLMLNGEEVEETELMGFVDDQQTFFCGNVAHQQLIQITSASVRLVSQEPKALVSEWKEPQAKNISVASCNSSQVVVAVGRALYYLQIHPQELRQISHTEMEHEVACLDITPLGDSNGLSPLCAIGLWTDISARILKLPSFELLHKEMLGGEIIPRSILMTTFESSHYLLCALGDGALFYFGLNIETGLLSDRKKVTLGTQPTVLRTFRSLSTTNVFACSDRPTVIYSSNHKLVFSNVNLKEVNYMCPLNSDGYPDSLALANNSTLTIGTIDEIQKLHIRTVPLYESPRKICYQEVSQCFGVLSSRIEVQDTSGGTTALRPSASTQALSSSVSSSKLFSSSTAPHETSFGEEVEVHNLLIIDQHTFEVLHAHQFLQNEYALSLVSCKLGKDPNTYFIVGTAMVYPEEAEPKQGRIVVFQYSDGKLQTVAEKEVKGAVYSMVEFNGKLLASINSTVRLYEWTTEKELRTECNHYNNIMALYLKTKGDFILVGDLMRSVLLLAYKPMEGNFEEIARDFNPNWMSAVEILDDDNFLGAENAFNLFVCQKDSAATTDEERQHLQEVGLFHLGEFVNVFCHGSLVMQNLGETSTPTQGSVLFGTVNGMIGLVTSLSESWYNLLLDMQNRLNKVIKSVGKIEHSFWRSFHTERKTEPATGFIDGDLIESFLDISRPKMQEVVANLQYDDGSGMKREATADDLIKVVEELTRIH

As for `O=C1CCC(N2Cc3cc(CNC(=O)C4=Cc5c(F)cccc5OC4)ccc3C2=O)C(=O)N1` (centres unmarked) [Compound A-2, N-((2-(2,6-Dioxopiperidin-3-yl)-1-oxoisoindolin-5-yl)methyl)-5-fluoro-2H-chromene-3-carboxamide], at GSPT1 protein (setting [1]), the percent GSPT1 degradation at 0.2 µM was > 80%. In the assay with KG-1 cells (Homo sapiens), this compound yielded an IC50 of 10 to 100 nM.
On the same counts, the results for `O=C1CCC(N2Cc3cc(CNC(=O)C4=Cc5ccc(F)cc5OC4)ccc3C2=O)C(=O)N1` (centres unmarked) [Compound A-4, N-((2-(2,6-Dioxopiperidin-3-yl)-1-oxoisoindolin-5-yl)methyl)-7-fluoro-2H-chromene-3-carboxamide] are 50 to 80% and 10 to 100 nM.
On the same counts, the results for `Cc1cc2c(cc1Cl)OCC(C(=O)NCc1ccc3c(c1)CN(C1CCC(=O)NC1=O)C3=O)=C2` (centres unmarked) [Compound A-29, N-((2-(2,6-Dioxopiperidin-3-yl)-1-oxoisoindolin-5-yl)methyl)-7-chloro-6-methyl-2H-chromene-3-carboxamide] are > 80% and 10 to 100 nM.
On the same counts, the results for `O=C1CCC(N2Cc3cc(CNC(=O)C4=Cc5c(F)ccc(F)c5OC4)ccc3C2=O)C(=O)N1` (centres unmarked) [Compound A-36, N-((2-(2,6-Dioxopiperidin-3-yl)-1-oxoisoindolin-5-yl)methyl)-5,8-difluoro-2H-chromene-3-carboxamide] are > 80% and 1 to 10 nM.
For `O=C1CCC(N2Cc3cc(CNC(=O)C4=Cc5cc(NC(=O)C6CC6)ccc5OC4)ccc3C2=O)C(=O)N1` (centres unmarked) [Compound A-26, N-((2-(2,6-Dioxopiperidin-3-yl)-1-oxoisoindolin-5-yl)methyl)-6-(cyclopropanecarboxamido)-2H-chromene-3-carboxamide], the percent GSPT1 degradation at 0.2 µM at GSPT1 protein (setting [1]) is < 25%. The compound also came in with an IC50 in the assay with KG-1 cells (Homo sapiens) of 100 to 1000 nM.
On the same counts, the results for `Nc1ccc2c(c1)C=C(C(=O)NCc1ccc3c(c1)CN(C1CCC(=O)NC1=O)C3=O)CO2` (centres unmarked) [Compound A-12, N-((2-(2,6-Dioxopiperidin-3-yl)-1-oxoisoindolin-5-yl)methyl)-6-amino-2H-chromene-3-carboxamide] are > 80% and 10 to 100 nM.
Turning to `Cc1ccc2c(c1)C=C(C(=O)NCc1ccc3c(c1)CN(C1CCC(=O)NC1=O)C3=O)CO2` (centres unmarked) [Compound A-7, N-((2-(2,6-Dioxopiperidin-3-yl)-1-oxoisoindolin-5-yl)methyl)-6-methyl-2H-chromene-3-carboxamide], the percent GSPT1 degradation at 0.2 µM on GSPT1 protein (setting [1]) is > 80%. Moreover, the IC50 in the assay on KG-1 cells (Homo sapiens) fell in the range of 1 to 10 nM.
The compound `CN(C)c1ccc2c(c1)C=C(C(=O)NCc1ccc3c(c1)CN(C1CCC(=O)NC1=O)C3=O)CO2` (centres unmarked) [Compound A-13, N-((2-(2,6-Dioxopiperidin-3-yl)-1-oxoisoindolin-5-yl)methyl)-6-(dimethylamino)-2H-chromene-3-carboxamide] had a percent GSPT1 degradation at 0.2 µM at GSPT1 protein (setting [1]) of 50 to 80%. This compound also came in with an IC50 in the assay on KG-1 cells (Homo sapiens) of 10 to 100 nM.
On the same counts, the results for `C#Cc1ccc2c(c1)C=C(C(=O)NCc1ccc3c(c1)CN(C1CCC(=O)NC1=O)C3=O)CO2` (centres unmarked) [Compound A-15, N-((2-(2,6-Dioxopiperidin-3-yl)-1-oxoisoindolin-5-yl)methyl)-6-ethynyl-2H-chromene-3-carboxamide] are 50 to 80% and 100 to 1000 nM.
In the same order, the values of `Cc1ccc(C)c2c1C=C(C(=O)NCc1ccc3c(c1)CN(C1CCC(=O)NC1=O)C3=O)CO2` (centres unmarked) [Compound A-38, N-((2-(2,6-Dioxopiperidin-3-yl)-1-oxoisoindolin-5-yl)methyl)-5,8-dimethyl-2H-chromene-3-carboxamide] are > 80% and 10 to 100 nM.
On the same counts, the results for `O=C1CCC(N2Cc3cc(CNC(=O)C4=Cc5ccc(F)c(F)c5OC4)ccc3C2=O)C(=O)N1` (centres unmarked) [Compound A-32, N-((2-(2,6-Dioxopiperidin-3-yl)-1-oxoisoindolin-5-yl)methyl)-7,8-difluoro-2H-chromene-3-carboxamide] are > 80% and 1 to 10 nM.
Take `O=C1CCC(N2Cc3c(ccc(CNC(=O)C4=Cc5cccc(OC(F)(F)F)c5OC4)c3F)C2=O)C(=O)N1` (centres unmarked) [Compound A-43, N-((2-(2,6-Dioxopiperidin-3-yl)-4-fluoro-1-oxoisoindolin-5-yl)methyl)-8-(trifluoromethoxy)-2H-chromene-3-carboxamide]: the percent GSPT1 degradation at 0.2 µM on GSPT1 protein (setting [1]) was > 80%. This compound displayed an IC50 in the assay with KG-1 cells (Homo sapiens) of 1 to 10 nM.
In the same order, the values of `O=C1CCC(N2Cc3cc(CNC(=O)C4=Cc5cc(NC(=O)CO)ccc5OC4)ccc3C2=O)C(=O)N1` (centres unmarked) [Compound A-25, N-((2-(2,6-Dioxopiperidin-3-yl)-1-oxoisoindolin-5-yl)methyl)-6-(2-hydroxyacetamido)-2H-chromene-3-carboxamide] are 25 to 50% and ≥ 1000 nM.
On the same counts, the results for `C=Cc1ccc2c(c1)C=C(C(=O)NCc1ccc3c(c1)CN(C1CCC(=O)NC1=O)C3=O)CO2` (centres unmarked) [Compound A-14, N-((2-(2,6-Dioxopiperidin-3-yl)-1-oxoisoindolin-5-yl)methyl)-6-vinyl-2H-chromene-3-carboxamide] are 50 to 80% and 10 to 100 nM.
On the same counts, the results for `COc1ccc2c(c1)C=C(C(=O)NCc1ccc3c(c1)CN(C1CCC(=O)NC1=O)C3=O)CO2` (centres unmarked) [Compound A-8, N-((2-(2,6-Dioxopiperidin-3-yl)-1-oxoisoindolin-5-yl)methyl)-6-methoxy-2H-chromene-3-carboxamide] are 50 to 80% and 10 to 100 nM.
Take `O=C1CCC(N2Cc3cc(CNC(=O)C4COc5ccc(Cl)cc5C4)ccc3C2=O)C(=O)N1` (centres unmarked) [Compound B-3, N-((2-(2,6-Dioxopiperidin-3-yl)-1-oxoisoindolin-5-yl)methyl)-6-chlorochromane-3-carboxamide]: the percent GSPT1 degradation at 0.2 µM on GSPT1 protein (setting [1]) is > 80%. In addition, in the assay on KG-1 cells (Homo sapiens), the IC50 lay in the range of 1 to 10 nM.
For `Cc1cc2c(cc1Cl)C=C(C(=O)NCc1ccc3c(c1)CN(C1CCC(=O)NC1=O)C3=O)CO2` (centres unmarked) [Compound A-28], the GSPT1 degradation entry on GSPT1 protein (setting [1]) is recorded as “A (a GSPT1 protein degradation percentage of no less than 80%)”. The IC50 in the assay with KG-1 cells is 10 to 100 nM.
For the compound `O=C1CCC(N2Cc3cc(CNC(=O)C4=Cc5cc(F)c(F)cc5OC4)ccc3C2=O)C(=O)N1` (centres unmarked) [Compound A-35, N-((2-(2,6-Dioxopiperidin-3-yl)-1-oxoisoindolin-5-yl)methyl)-6,7-difluoro-2H-chromene-3-carboxamide], the percent GSPT1 degradation on GSPT1 protein (KG-1, 4 h, read-out: GSPT1 degradation) was > 80%. In addition, the IC50 in the assay on KG-1 cells (Homo sapiens) fell in the range of 10 to 100 nM.
With `O=C1CCC(N2Cc3cc(CNC(=O)C4=Cc5cc(F)cc(F)c5OC4)ccc3C2=O)C(=O)N1` (centres unmarked) [Compound A-33, N-((2-(2,6-Dioxopiperidin-3-yl)-1-oxoisoindolin-5-yl)methyl)-6,8-difluoro-2H-chromene-3-carboxamide], the percent GSPT1 degradation at 0.2 µM on GSPT1 protein (setting [1]) was > 80%. The compound also yielded an IC50 with KG-1 cells (Homo sapiens) of 1 to 10 nM.
